# Structures can show the parent of a compound that is named as a salt.
# Test system: Acinetobacter baumannii ATCC17978
# Experiment: Antimicrobial susceptibility testing, 90% growth inhibitory concentration (IC90) determination, ATCC17978
# Type: cell-based
# Settings: Iso-Sensitest broth, OD 600 nm over 16 h, 35±2° C., read-out: ATCC 17978 IC90
# Experimental: Antimicrobial Susceptibility Testing: 90% Growth Inhibitory Concentration (IC90) Determination The in vitro antimicrobial activity of the compounds was determined according to the following procedure: The assay used a 10-points Iso-Sensitest broth medium to measure quantitatively the in vitro activity of the compounds against Acinetobacter baumannii ATCC17978 or ATCC17961. Stock compounds in DMSO were serially twofold diluted (e.g. range from 50 to 0.097 μM final concentration) in 384 wells microtiter plates and inoculated with 49 μl the bacterial suspension in Iso-Sensitest medium to have a final cell concentration of ˜5×10^(5) CFU/ml in a final volume/well of 50 ul/well. Microtiter plates were incubated at 35±2° C. Bacterial cell growth was determined with the measurement of optical density at X=600 nm each 20 minutes over a time course of 16 h. Growth inhibition was calculated during the logarithmic growth of the bacterial cells with determination of the concentration inhibiting 50% (IC50) and 90% (IC90) of the growth. Table 1 provides the 90% growth inhibitory concentrations (IC90) in micromoles per liter of the compounds of present invention obtained against the strain Acinetobacter baumannii ATCC17978.
row,Structure (SMILES),IC90 [nM]
1,"COc1ccc(-c2cnc(C(=O)Nc3ccc(C(=O)NCCN4CCNCC4)c(Cl)c3)n2C)c(F)c1F [Example A2, N-[3-chloro-4-(2-piperazin-1-ylethylcarbamoyl)phenyl]-5-(2,3-difluoro-4-methoxy-phenyl)-1-methyl-imidazole-2-carboxamide]",610
2,"COc1ccc(-c2cnc(C(=O)Nc3ccc(C(=O)NCCN4CCC(O)C4)c(Cl)c3)n2C)c(F)c1F (stereo not drawn) [Example A28, N-[3-chloro-4-[2-(3-hydroxypyrrolidin-1-yl)ethylcarbamoyl]phenyl]-5-(2,3-difluoro-4-methoxy-phenyl)-1-methyl-imidazole-2-carboxamide]",1200
3,"CCc1cc(NC(=O)c2ncc(-c3ccc(OCC(N)=O)c(F)c3F)n2C)ccc1C(=O)NCCOCCN [Example A21, N-[4-[2-(2-aminoethoxy)ethylcarbamoyl]-3-ethyl-phenyl]-5-[4-(2-amino-2-oxo-ethoxy)-2,3-difluoro-phenyl]-1-methyl-imidazole-2-carboxamide;hydrochloride]",4700
4,"COc1ccc(-c2cnc(C(=O)Nc3ccc(C(=O)NC4CCNC4)c(Cl)c3)n2C)c(F)c1F (stereo not drawn) [Example A3, N-[3-chloro-4-(pyrrolidin-3-ylcarbamoyl)phenyl]-5-(2,3-difluoro-4-methoxy-phenyl)-1-methyl-imidazole-2-carboxamide;formic acid]",310
5,"COc1ccc(-c2cnc(C(=O)Nc3ccc(C(=O)NCCOCCN)c(Cl)c3)n2C)c(F)c1F [Example A1, N-[4-[2-(2-Aminoethoxy)ethylcarbamoyl]-3-chloro-phenyl]-5-(2,3-difluoro-4-methoxy-phenyl)-1-methyl-imidazole-2-carboxamide]",240
6,"CC(C)CCOCCNC(=O)c1ccc(NC(=O)c2ncc(-c3ccc(OCC#N)c(F)c3F)n2C)cc1Cl [Example A27, N-[3-chloro-4-(2-isopentyloxyethylcarbamoyl)phenyl]-5-[4-(cyanomethoxy)-2,3-difluoro-phenyl]-1-methyl-imidazole-2-carboxamide;formic acid]",240
7,"Cn1c(-c2ccc(OCC#N)c(F)c2F)cnc1C(=O)Nc1ccc(C(=O)NCCOCCN)c(Cl)c1 [Example A9, N-[4-[2-(2-aminoethoxy)ethylcarbamoyl]-3-chloro-phenyl]-5-[4-(cyanomethoxy)-2,3-difluoro-phenyl]-1-methyl-imidazole-2-carboxamide;formic acid]",250
8,"COc1ccc(-c2cnc(C(=O)Nc3ccc(C(=O)NCC4CCNCC4)c(Cl)c3)n2C)c(F)c1F [Example A5, N-[3-chloro-4-(4-piperidylmethylcarbamoyl)phenyl]-5-(2,3-difluoro-4-methoxy-phenyl)-1-methyl-imidazole-2-carboxamide;formic acid]",550
9,"COc1ccc(-c2cnc(C(=O)Nc3ccc(C(=O)NC4CCNCC4)c(Cl)c3)n2C)c(F)c1F [Example A4, N-[3-chloro-4-(4-piperidylcarbamoyl)phenyl]-5-(2,3-difluoro-4-methoxy-phenyl)-1-methyl-imidazole-2-carboxamide;formic acid]",440
10,"Cn1c(-c2ccc(OC(F)F)c(F)c2F)cnc1C(=O)Nc1ccc(C(=O)NCCCN)c(Cl)c1 [Example A19, N-[4-(3-Aminopropylcarbamoyl)-3-chloro-phenyl]-5-[4-(difluoromethoxy)-2,3-difluoro-phenyl]-1-methyl-imidazole-2-carboxamide]",1400

# Next, values leading:
row,IC90 [nM],Structure (SMILES)
1,320,"CCc1cc(NC(=O)c2ncc(-c3ccc(OC)c(F)c3F)n2C)ccc1C(=O)N[C@H]1C[C@@H](C(=O)NCCN)C1 [Example B22, N-[4-[[3-(2-aminoethylcarbamoyl)cyclobutyl]carbamoyl]-3-ethyl-phenyl]-5-(2,3-difluoro-4-methoxy-phenyl)-1-methyl-imidazole-2-carboxamide;2,2,2-trifluoroacetic acid]"
2,210,"COc1ccc(-c2cnc(C(=O)Nc3ccc(C(=O)N[C@H]4C[C@@H](C(=O)N5CC(N)C5)C4)c(Cl)c3)n2C)c(F)c1F [Example B20, N-[4-[[3-(3-aminoazetidine-1-carbonyl)cyclobutyl]carbamoyl]-3-chloro-phenyl]-5-(2,3-difluoro-4-methoxy-phenyl)-1-methyl-imidazole-2-carboxamide;formic acid]"
3,130,"COc1ccc(-c2cnc(C(=O)Nc3ccc(C(=O)NC4CCN(C(=O)[C@@H]5CCNC5)C4)c(Cl)c3)n2C)c(F)c1F (stereo partly drawn) [Example B2, N-[3-chloro-4-[[1-[(3R)-pyrrolidine-3-carbonyl]pyrrolidin-3-yl]carbamoyl]phenyl]-5-(2,3-difluoro-4-methoxy-phenyl)-1-methyl-imidazole-2-carboxamide;formic acid]"
4,350,"Cn1c(-c2ccc(OCC#N)c(F)c2F)cnc1C(=O)Nc1ccc(C(=O)NCCNC(=O)C2(O)CCNCC2)c(Cl)c1 [Example B16, N-[2-[[2-chloro-4-[[5-[4-(cyanomethoxy)-2,3-difluoro-phenyl]-1-methyl-imidazole-2-carbonyl]amino]benzoyl]amino]ethyl]-4-hydroxy-piperidine-4-carboxamide;2,2,2-trifluoroacetic acid]"
5,280,"COc1ccc(-c2cnc(C(=O)Nc3ccc(C(=O)NC4CCN(C(=O)[C@@H]5C[C@@H](O)CN5)C4)c(Cl)c3)n2C)c(F)c1F (stereo partly drawn) [Example B3, N-[3-chloro-4-[[1-[(2S,4R)-4-hydroxypyrrolidine-2-carbonyl]pyrrolidin-3-yl]carbamoyl]phenyl]-5-(2,3-difluoro-4-methoxy-phenyl)-1-methyl-imidazole-2-carboxamide;formic acid]"
6,760,"CCc1cc(NC(=O)c2ncc(-c3ccc(OC(F)F)c(F)c3F)n2C)ccc1C(=O)NCCCNC(=O)C1CCNCC1 [Example B12, N-[3-[[4-[[5-[4-(difluoromethoxy)-2,3-difluoro-phenyl]-1-methyl-imidazole-2-carbonyl]amino]-2-ethyl-benzoyl]amino]propyl]piperidine-4-carboxamide;formic acid]"
7,57,"COc1ccc(-c2cnc(C(=O)Nc3ccc(C(=O)N[C@H]4C[C@@H](NC(=O)C5CCNCC5)C4)c(Cl)c3)n2C)c(F)c1F [Example B39, N-[3-[[2-chloro-4-[[5-(2,3-difluoro-4-methoxy-phenyl)-1-methyl-imidazole-2-carbonyl]amino]benzoyl]amino]cyclobutyl]piperidine-4-carboxamide;formic acid]"
8,230,"Cn1c(-c2ccc(OC(F)F)c(F)c2F)cnc1C(=O)Nc1ccc(C(=O)NCCCNC(=O)CCN)c(Cl)c1 [Example B11, N-[4-[3-(3-aminopropanoylamino)propylcarbamoyl]-3-chloro-phenyl]-5-[4-(difluoromethoxy)-2,3-difluoro-phenyl]-1-methyl-imidazole-2-carboxamide;2,2,2-trifluoroacetic acid]"
9,300,"CCc1cc(NC(=O)c2ncc(-c3ccc(OC)c(F)c3F)n2C)ccc1C(=O)NC1CN(C(=O)CN)C1 [Example B23, N-[4-[[1-(2-aminoacetyl)azetidin-3-yl]carbamoyl]-3-ethyl-phenyl]-5-(2,3-difluoro-4-methoxy-phenyl)-1-methyl-imidazole-2-carboxamide;formic acid]"
10,870,"CC[C@]1(O)CN[C@@H](C(=O)NCCNC(=O)c2ccc(NC(=O)c3ncc(-c4ccc(OCC#N)c(F)c4F)n3C)cc2C)C1 [Example B25, 5-[4-(cyanomethoxy)-2,3-difluoro-phenyl]-N-[4-[2-[[(2R,4R)-4-ethyl-4-hydroxy-pyrrolidine-2-carbonyl]amino]ethylcarbamoyl]-3-methyl-phenyl]-1-methyl-imidazole-2-carboxamide;formic acid]"
11,910,"Cc1cc(NC(=O)c2ncc(-c3ccc(OCC#N)c(F)c3F)n2C)ccc1C(=O)NCCNC(=O)C1CCNCC1 [Example B13, N-[2-[[4-[[5-[4-(cyanomethoxy)-2,3-difluoro-phenyl]-1-methyl-imidazole-2-carbonyl]amino]-2-methyl-benzoyl]amino]ethyl]piperidine-4-carboxamide;formic acid]"
12,1100,"CC[C@]1(O)CN[C@@H](C(=O)NCCNC(=O)c2ccc(NC(=O)c3ncc(-c4ccc(OC)c(F)c4F)n3C)cc2C)C1 [Example B27, 5-(2,3-difluoro-4-methoxy-phenyl)-N-[4-[2-[[(2R,4R)-4-ethyl-4-hydroxy-pyrrolidine-2-carbonyl]amino]ethylcarbamoyl]-3-methyl-phenyl]-1-methyl-imidazole-2-carboxamide;formic acid]"
13,130,"COc1ccc(-c2cnc(C(=O)Nc3ccc(C(=O)N[C@H]4C[C@@H](NC(=O)[C@@H]5CCNC[C@@H]5O)C4)c(Cl)c3)n2C)c(F)c1F [Example B41, (3R,4R)-N-[3-[[2-chloro-4-[[5-(2,3-difluoro-4-methoxy-phenyl)-1-methyl-imidazole-2-carbonyl]amino]benzoyl]amino]cyclobutyl]-3-hydroxy-piperidine-4-carboxamide;formic acid]"
14,830,"Cn1c(-c2ccc(OC(F)F)c(F)c2F)cnc1C(=O)Nc1ccc(C(=O)NCCC2CN(CC3CNC3)C2)c(Cl)c1 [Example C1, N-[4-[2-[1-(Azetidin-3-ylmethyl)azetidin-3-yl]ethylcarbamoyl]-3-chloro-phenyl]-5-[4-(difluoromethoxy)-2,3-difluoro-phenyl]-1-methyl-imidazole-2-carboxamide;2,2,2-trifluoroacetic acid]"
